Drawing on PubChem BioAssay (NCI), this text covers GI50 and TGI for nine compounds.

Test systems include SN12C renal; HOP-62 NSCLC; HCT-116 colon; MOLT-4 leukemia; A549 NSCLC; A498 renal; U251 CNS; MDA-MB-435; T-47D breast; MALME-3M melanoma.
Holding throughout (experiment): growth of human tumour cells (NCI), 48 h

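Protocol summary: plate cells (96-well), add compound at 5 concentrations, incubate 48 h, interpolate endpoints linearly. Abbreviation: GI50, concentration required for 50% inhibition of growth. TGI marks complete inhibition of growth.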

Consider `CN(C)c1ccc(Sc2ccc3nc(N)nc(N)c3c2)cc1`, for which the GI50 is 0.761 µM in the assay on SN12C renal; 0.884 µM in the assay on HOP-62 NSCLC; 0.305 µM in the assay with HCT-116 colon; 0.635 µM in the assay on MOLT-4 leukemia; 0.139 µM in the assay with A549 NSCLC; 3.34 µM in the assay on A498 renal. Also, the GI50 is 0.446 µM in the assay with U251 CNS, 0.542 µM in the assay with MDA-MB-435, 1.66 µM in the assay with T-47D breast and 1.09 µM in the assay with MALME-3M melanoma. Also, the TGI in the assay on SN12C renal worked out at 14.2 µM; with HOP-62 NSCLC it was 15.6 µM; in the assay with HCT-116 colon it was 1.64 µM; with MOLT-4 leukemia it was 16 µM; in the assay with A549 NSCLC, 12 µM; in the assay with A498 renal it was 14 µM. For the same compound, the TGI in the assay with U251 CNS is 4.14 µM; in the assay on MDA-MB-435, 14.2 µM; in the assay with T-47D breast, 4.82 µM; with MALME-3M melanoma it was 2.87 µM.
As to `OCCCCC#Cc1ccccc1C#Cc1cnccn1`, the GI50 with SN12C renal was 47.3 µM; in the assay with HOP-62 NSCLC, 41 µM; in the assay on HCT-116 colon it was 42.6 µM; in the assay with MOLT-4 leukemia, 29.8 µM; in the assay on A549 NSCLC, 38.3 µM; in the assay on A498 renal it was 13.5 µM. Besides, the GI50 in the assay on U251 CNS is 37.8 µM; in the assay with MDA-MB-435 it was 33.8 µM; in the assay with T-47D breast it was 27.5 µM; with MALME-3M melanoma, 47.9 µM. Besides, the TGI in the assay with SN12C renal was > 100 µM; with HOP-62 NSCLC, > 100 µM; in the assay on HCT-116 colon, > 100 µM; in the assay on MOLT-4 leukemia it was > 100 µM; in the assay on A549 NSCLC, > 100 µM; with A498 renal, 53.9 µM. Besides, the TGI in the assay with U251 CNS, with MDA-MB-435, in the assay with T-47D breast and in the assay with MALME-3M melanoma was > 100 µM in each case.
With `COC(=O)Nc1nc2ccc(Sc3ccc(NC(=O)Nc4cc(C(F)(F)F)ccc4F)cc3)cc2[nH]1`, the GI50 in the assay on SN12C renal was 3.82 µM; with HOP-62 NSCLC, 3.73 µM; in the assay with HCT-116 colon, 1.37 µM; in the assay with MOLT-4 leukemia, 3.26 µM; with A549 NSCLC, 3.01 µM; with A498 renal it was 2.71 µM. Further, the GI50 with U251 CNS was 3.27 µM; in the assay with MDA-MB-435 it was 0.605 µM; with T-47D breast, 4.43 µM; in the assay on MALME-3M melanoma, 2.99 µM. Besides, the TGI in the assay on SN12C renal stood at 11 µM; in the assay with HOP-62 NSCLC it was 9.56 µM; in the assay on HCT-116 colon it was 4.67 µM; in the assay on MOLT-4 leukemia, 17 µM; with A549 NSCLC, 7.06 µM; with A498 renal, 10.7 µM. The TGI with U251 CNS was found to be 7.28 µM; in the assay on MDA-MB-435, 2.71 µM; in the assay on T-47D breast, 11.2 µM; in the assay with MALME-3M melanoma, 23.6 µM.
As for `COc1ccc(N(Cc2cc(OC)c(OC)c(OC)c2)C2OC(=O)c3ccccc32)cc1` (stereo not given), the GI50 is 0.703 µM with SN12C renal; 0.783 µM in the assay with HOP-62 NSCLC; 0.426 µM with HCT-116 colon; 0.661 µM with MOLT-4 leukemia; 0.626 µM in the assay on A549 NSCLC; 0.249 µM with A498 renal. In addition, the GI50 in the assay with U251 CNS is 0.385 µM; in the assay with MDA-MB-435, 0.165 µM; in the assay with T-47D breast, 78 µM; in the assay on MALME-3M melanoma it was 0.511 µM. Further, the TGI with SN12C renal was > 100 µM; in the assay with HOP-62 NSCLC it was > 100 µM; with HCT-116 colon it was > 100 µM; in the assay on MOLT-4 leukemia, > 100 µM; in the assay with A549 NSCLC it was > 100 µM; in the assay with A498 renal, 1.61 µM. Moreover, the TGI with U251 CNS is > 34.7 µM; in the assay on MDA-MB-435 it was 0.433 µM; in the assay on T-47D breast, > 100 µM; in the assay on MALME-3M melanoma, > 100 µM.
Regarding `C[C@]12CC[C@@H]3c4ccc(O)cc4CC[C@H]3[C@@H]1CC[C@@H]2NS(=O)(=O)c1ccc(-c2ccccc2)cc1`, the GI50 was 2.75 µM in the assay with SN12C renal; 10.5 µM in the assay on HOP-62 NSCLC; 2.88 µM in the assay with HCT-116 colon; 3.47 µM in the assay on MOLT-4 leukemia; 3.26 µM with A549 NSCLC; 1.96 µM in the assay on A498 renal. Moreover, the GI50 in the assay with U251 CNS is 4 µM; in the assay with MDA-MB-435, 3.21 µM; in the assay with T-47D breast it was 3.47 µM; with MALME-3M melanoma, 3.01 µM. In addition, the TGI in the assay on SN12C renal was 10.3 µM; in the assay on HOP-62 NSCLC, > 100 µM; in the assay with HCT-116 colon, 11.4 µM; with MOLT-4 leukemia, > 100 µM; with A549 NSCLC it was > 100 µM; with A498 renal, 9.13 µM. For the same compound, the TGI came out at 32.6 µM in the assay with U251 CNS, 12.3 µM in the assay on MDA-MB-435, 49 µM in the assay with T-47D breast and 12.6 µM with MALME-3M melanoma.
As to `CC(=O)C1=C(O)/C(=C\c2ccco2)OC1=O`, the TGI with SN12C renal, in the assay on HOP-62 NSCLC, in the assay on HCT-116 colon, in the assay with MOLT-4 leukemia, in the assay with A549 NSCLC and with A498 renal was > 10 µM each time. The TGI in the assay with U251 CNS, in the assay with MDA-MB-435, in the assay with T-47D breast and in the assay with MALME-3M melanoma was > 10 µM throughout.
`CCNC(=O)Oc1ccc(/C(=C(\C)c2ccc(Cl)cc2)c2ccc(OCCN3CCCCC3)cc2)cc1`: the GI50 in the assay with SN12C renal was 5.95 µM; in the assay with HOP-62 NSCLC, 4.12 µM; with HCT-116 colon, 1.69 µM; with MOLT-4 leukemia, 3.27 µM; with A549 NSCLC it was 8.47 µM; in the assay on A498 renal, 13.7 µM. The GI50 in the assay with U251 CNS is 4.19 µM; in the assay with MDA-MB-435, 3.39 µM; in the assay with T-47D breast it was 1.34 µM; in the assay on MALME-3M melanoma it was 1.78 µM. In addition, the TGI in the assay with SN12C renal is 19.2 µM; in the assay with HOP-62 NSCLC, 15.4 µM; with HCT-116 colon it was 3.22 µM; in the assay with MOLT-4 leukemia it was 10.6 µM; in the assay with A549 NSCLC it was 22.4 µM; in the assay with A498 renal it was 27 µM. Moreover, the TGI worked out at 14.5 µM in the assay on U251 CNS, 14.1 µM with MDA-MB-435, 10.2 µM with T-47D breast and 3.9 µM in the assay on MALME-3M melanoma.
As for `COc1cc2c(cc1OC)[C@H]1C(=O)c3cc4c(cc3[C@H]1N(C)C2=O)OCO4`, the TGI was > 100 µM in the assay with SN12C renal; > 79.2 µM in the assay on HOP-62 NSCLC; > 100 µM in the assay with HCT-116 colon; 5.7 µM in the assay with MOLT-4 leukemia; > 100 µM with A549 NSCLC; > 79.5 µM in the assay on A498 renal. Further, the TGI with U251 CNS was > 100 µM; in the assay on MDA-MB-435 it was > 100 µM; with T-47D breast, > 100 µM; in the assay on MALME-3M melanoma, > 89.5 µM.
As for `CN1C(=O)C23CC4=CC=CC(O)C4N2C(=O)C1(CO)SS3` (stereo not given), the TGI came out at 0.139 µM with SN12C renal; 0.322 µM in the assay on HOP-62 NSCLC; 0.279 µM in the assay on HCT-116 colon; 0.447 µM in the assay with MOLT-4 leukemia; 0.318 µM with A549 NSCLC; 0.402 µM in the assay on A498 renal. In addition, the TGI with U251 CNS worked out at 0.448 µM; with MDA-MB-435, 2.56 µM; in the assay with T-47D breast, 0.339 µM; in the assay with MALME-3M melanoma it was 0.449 µM.
